Test results reported in US12161650B2, “Pharmaceutical compositions comprising a ryanodine receptor modulator and uses thereof” (priority 2021, dated 2024).
Read-outs that look alike come from different tables or passages of the source.

Experiment: Phase 1 clinical trial, Part II multiple ascending doses over 14 days, plasma pharmacokinetics
Type: in vivo, human (healthy male volunteers)
Conditions: for Cmax / Tmax / AUC(0-t) / AUC / half-life: male, human, plasma; for AUC(0-t): read-out: AUC0-24
Protocol: A Phase 1, randomized, double-blind, placebo-controlled clinical trial was performed to assess the safety and pharmacokinetics (PK) of Compound I after single, escalating, and repeated oral doses in health male volunteers.
4-[(7-methoxy-2,3-dihydro-1,4-benzothiazepin-4(5H)yl)methyl]benzoic acid hemi-fumarate (Compound I) was administered in a gastro-resistant tablet according to Example 1. The formulation contained 20 mg, 40 mg, or 200 mg Compound I (based on the mass of 4-[(7-methoxy-2,3-dihydro-1,4-benzothiazepin-4(5H)yl)methyl]benzoic acid). Placebo tablet according to Example 4 was used as comparator.
In Part II, participants from groups I, J, K, and L received repeated doses of 20 mg, 60 mg, 120 mg, or 240 mg Compound I, respectively, or corresponding placebo once daily over a period of 14 days. Forty-one subjects completed Part II: 7/7/8/7 for cohorts I, J, K, L, and twelve placebo.
In Part II, blood samples were collected from each participant as follows: Day 1: 12 samples from the pre-morning dose up to 16 h (pre-dose, 0.25, 0.5, 1, 1.5, 2, 3, 4, 6, 8, 12, and 16 h), Days 2-13: 12 samples at pre-doses (i.e., morning dose); Day 14: 16 samples from the pre-morning dose up to 96 (D14 pre-dose, 0.25, 0.5, 1, 1.5, 2, 3, 4, 6, 8, 12, and 16 h and D15-18: 1 sample before theoretical morning dosing.
The area under the plasma concentration-time curve was calculated using a combined linear and logarithmic trapezoidal rule. The interpolation was linear in the constant and ascending parts of the plasma concentration-time profiles. The interpolation was logarithmic in the descending parts.
For Part II, the same approach was used on AUCτ (Day 14) respectively AUC24 (Day 1), and Cmax.
For each group and treatment, descriptive statistics (N, arithmetic mean, standard deviation, minimum, median, maximum, coefficient of variation, geometric mean, and geometric CV, as appropriate) were calculated for the concentrations and pharmacokinetic parameters of Compound I.
Plasma and muscle samples were analyzed by LC-MS/MS method.

[1] = geometric means across dose groups 20-240 mg, 14-day repeated administration

Day at which steady-state was attained (240 mg cohort): 5 days
Day at which steady-state was attained (20, 60, and 120 mg cohorts): 4 days
Time to steady-state (daily treatment, across cohorts): 3 to 7 days
Accumulation ratio based on AUC [1]: 1.4-1.8
Accumulation ratio based on Cmax [1]: 1.4-1.8
Cmax (oral, 20 mg, 20 mg once daily, Day 1, geom. mean (geom. % CV), n = 8): 2200 ng/mL
Tmax (oral, 20 mg, 20 mg once daily, Day 1, median (range), n = 8, read-out: tmax): 2.52 h
Cmax (oral, 20 mg, 20 mg once daily, Day 14, geom. mean): 3110 ng/mL
Tmax (oral, 20 mg, 20 mg once daily, Day 14, median, read-out: tmax): 3 h
Cmax (oral, 60 mg, 60 mg once daily, Day 1, geom. mean): 6090 ng/mL
Tmax (oral, 60 mg, 60 mg once daily, Day 1, median, read-out: tmax): 3 h
Cmax (oral, 60 mg, 60 mg once daily, Day 14, geom. mean): 8840 ng/mL
Tmax (oral, 60 mg, 60 mg once daily, Day 14, median, read-out: tmax): 1.45 h
Cmax (oral, 120 mg, 120 mg once daily, Day 1, geom. mean): 11500 ng/mL
Tmax (oral, 120 mg, 120 mg once daily, Day 1, median, read-out: tmax): 3 h
Cmax (oral, 120 mg, 120 mg once daily, Day 14, geom. mean): 16300 ng/mL
Tmax (oral, 120 mg, 120 mg once daily, Day 14, median, read-out: tmax): 3.5 h
Cmax (oral, 240 mg, 240 mg once daily, Day 1, geom. mean): 23900 ng/mL
Tmax (oral, 240 mg, 240 mg once daily, Day 1, median, read-out: tmax): 3 h
Cmax (oral, 240 mg, 240 mg once daily, Day 14, geom. mean): 34900 ng/mL
Tmax (oral, 240 mg, 240 mg once daily, Day 14, median, read-out: tmax): 3 h
AUC(0-t) (oral, 20 mg once daily (Treatment I), Day 1, geom. mean, n = 7): 24.3 µg·h/mL
AUC (oral, 20 mg once daily, Day 14, geom. mean): 40.1 µg·h/mL
half-life (oral, 20 mg once daily, Day 14, geom. mean, read-out: t1/2, z (converted)): 19.3 h
AUC(0-t) (oral, 60 mg once daily (Treatment J, n = 7), Day 1, geom. mean): 69.2 µg·h/mL
AUC (oral, 60 mg once daily, Day 14, geom. mean): 115 µg·h/mL
half-life (oral, 60 mg once daily, Day 14, geom. mean, read-out: t1/2, z (converted)): 19.7 h
AUC(0-t) (oral, 120 mg once daily (Treatment K, n = 8), Day 1, geom. mean): 138 µg·h/mL
AUC (oral, 120 mg once daily, Day 14, geom. mean): 221 µg·h/mL
half-life (oral, 120 mg once daily, Day 14, geom. mean, read-out: t1/2, z (converted)): 19.3 h
AUC(0-t) (oral, 240 mg once daily (Treatment L, n = 7), Day 1, geom. mean): 270 µg·h/mL
AUC (oral, 240 mg once daily, Day 14, geom. mean): 465 µg·h/mL
half-life (oral, 240 mg once daily, Day 14, geom. mean, read-out: t1/2, z (converted)): 19.8 h
half-life (oral, based on the results of the single and repeat dose studies, read-out: Mean apparent terminal half-life (converted)): ~20 h
Tmax (po, after 14-days of repeated once daily oral administrations, across cohorts, read-out: median Tmax): 3 to 4 h
Dose proportionality regarding AUCτ resp. AUC0-24 and Cmax (repeated doses, graphical inspections): dose proportionality
SMILES: COc1ccc2c(c1)CN(Cc1ccc(C(=O)O)cc1)CCS2.O=C(O)/C=C/C(=O)O [Compound I, 4-[(7-methoxy-2,3-dihydro-1,4-benzothiazepin-4(5H)yl)methyl]benzoic acid hemifumarate]
Non-linearity with the time and dose (repeated oral administrations at 20, 60, 120, and 240 mg/d): No evidence of non-linearity with the time and dose was observed
